ChEMBL document CHEMBL2375355, “Practical synthesis of a chromene analog for use as a retinoic acid receptor alpha antagonist lead compound” (Eur J Med Chem, 2013)
Calls of active or inactive are those of the source. The rule behind the calls is not given here.

Experiments:
Type in all cases: cell-based
[1] = molecular target: T1, Retinoic acid receptor alpha (Homo sapiens) (UniProt P10276); test: Antagonist activity at RARalpha in human MCF7 cells assessed as inhibition of ATRA-induced luciferase activity at 0.1 to 1 nM after 48 hrs by luciferase reporter gene assay
T1 sequence (whole entry): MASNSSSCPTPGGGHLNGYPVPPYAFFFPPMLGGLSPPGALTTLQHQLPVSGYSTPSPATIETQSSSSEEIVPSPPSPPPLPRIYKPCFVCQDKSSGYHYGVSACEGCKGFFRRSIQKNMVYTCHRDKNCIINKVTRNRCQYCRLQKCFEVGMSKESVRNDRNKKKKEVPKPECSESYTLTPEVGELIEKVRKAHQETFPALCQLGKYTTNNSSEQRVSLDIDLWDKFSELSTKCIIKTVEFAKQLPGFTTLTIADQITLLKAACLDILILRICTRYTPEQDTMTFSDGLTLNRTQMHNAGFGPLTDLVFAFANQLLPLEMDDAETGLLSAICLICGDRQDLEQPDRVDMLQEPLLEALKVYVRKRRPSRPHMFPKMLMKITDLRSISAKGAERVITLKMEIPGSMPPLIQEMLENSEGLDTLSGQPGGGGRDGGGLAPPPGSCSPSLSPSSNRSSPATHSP

[2] = molecular target: T1, Retinoic acid receptor alpha (Homo sapiens); test: Antagonist activity at RARalpha in human MCF7 cells assessed as inhibition of ATRA-induced luciferase activity at 10 nM after 48 hrs by luciferase reporter gene assay
[3] = molecular target: T1, Retinoic acid receptor alpha (Homo sapiens); test: Antagonist activity at RARalpha in human MCF7 cells assessed as inhibition of ATRA-induced luciferase activity after 48 hrs by luciferase reporter gene assay

Compound | inhibition [1] | inhibition [2] | inhibition [3]
Cc1ccc(C2=CC(C)(C)Oc3c(Br)cc(C(=O)Nc4ccc(C(=O)O)c(F)c4)cc32)cc1 | Active |  | 
Cc1ccc(C2=CC(C)(C)Oc3c(Br)cc(C(=O)Nc4ccc(C(=O)O)cc4)cc32)cc1 |  | Active | Dose-dependent effect
